Test results: patent US20210322382A1, “METHODS AND COMPOSITIONS FOR IMPROVED TREATMENT OF SINUS DISEASE” (Veloce BioPharma LLC, priority 2020, published 2021)

Key:
[1] = aqueous solution; stated as known; cited from earlier work
[2] = stated as known drawback of PVP-I; cited from earlier work
[3] = Stability of PVP-I solutions, USP method; type: physicochemical; conditions: aprotic DMSO solvent system, long periods of time
Excerpt: It is known that PVP-I aqueous solutions are difficult to stabilize at low concentrations over a long time. At concentrations less than about 0.7% PVP-I (w/w, aqueous), PVP-I aqueous solutions rapidly decay to yield complex mixtures of iodinated and iodine-free constituents. […] It is of additional novelty that even in the hydrated DMSO solutions prepared from aqueous PVP-I, increased stability is observed for the PVP-I component.

Question: With povidone-iodine [PVP-I] as the substance, how does the “PVP-I concentration below which aqueous solutions rapidly decay” value [1] read?
Answer: Its value is “less than 0.7 % (w/w, aqueous)”.

Question: What about the “PVP-I concentration above which toxic to the sinuses” value [2] of the same substance?
Answer: Its value is “above 2.2 % w/w”.

Question: And the “lowest PVP-I concentration prepared and maintained as stable composition” value [3]?
Answer: The value was 0.1%.
